Laboratory results taken from PubChem BioAssay AID1919009 (Molecular Pharmacology Branch, DTP, NCI, 2023).
Blank lines part the entries; values can stand above or below the compound they belong to.

Tested on: K24384-001-R-PDC complex spheroid growth
Experiment: Anticancer human tumor K24384-001-R-PDC patient-derived pancreatic adenocarcinoma cell line growth inhibition [AhR]
Conditions: for IC50: curve of first compound; for viability, T/C: stronger effect = lower value
Method in brief: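 Complex tumor spheroids co-cultured with HUVEC and human MSC stroma; AhR antagonists tested in combination with standard-of-care and investigational agents. Top concentration at or near clinical Cmax (else 10 microM), half-log dilutions; growth expressed as percent test/control.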

[1] = second compound 0.1 µM, first compound 0.0316 µM
[2] = second compound 0.1 µM, first compound 0.1 µM
[3] = second compound 0.1 µM, first compound 0.316 µM
[4] = second compound 0.1 µM, first compound 1 µM
[5] = second compound 0.1 µM, first compound 3.16 µM
[6] = second compound 0.1 µM, first compound 10 µM
[7] = second compound 0.316 µM, first compound 0.0316 µM
[8] = second compound 0.316 µM, first compound 0.1 µM
[9] = second compound 0.316 µM, first compound 0.316 µM
[10] = second compound 0.316 µM, first compound 1 µM
[11] = second compound 0.316 µM, first compound 3.16 µM
[12] = second compound 0.316 µM, first compound 10 µM
[13] = second compound 1 µM, first compound 0.0316 µM
[14] = second compound 1 µM, first compound 0.1 µM
[15] = second compound 1 µM, first compound 0.316 µM
[16] = second compound 1 µM, first compound 1 µM
[17] = second compound 1 µM, first compound 3.16 µM
[18] = second compound 1 µM, first compound 10 µM
[19] = second compound 3.16 µM, first compound 0.0316 µM
[20] = second compound 3.16 µM, first compound 0.1 µM
[21] = second compound 3.16 µM, first compound 0.316 µM
[22] = second compound 3.16 µM, first compound 1 µM
[23] = second compound 3.16 µM, first compound 3.16 µM
[24] = second compound 3.16 µM, first compound 10 µM
[25] = second compound 10 µM, first compound 0.0316 µM
[26] = second compound 10 µM, first compound 0.1 µM
[27] = second compound 10 µM, first compound 0.316 µM
[28] = second compound 10 µM, first compound 1 µM
[29] = second compound 10 µM, first compound 3.16 µM
[30] = second compound 10 µM, first compound 10 µM
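Wherever viability, T/C is given: percent of DMSO vehicle-treated spheroid viability set as 100%.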

IC50 (second compound 0.1 µM): 103 nM
IC50 (second compound 0.316 µM): 105 nM
IC50 (second compound 1 µM): 94.8 nM
IC50 (second compound 3.16 µM): 99.1 nM
IC50 (second compound 10 µM): 168 nM
SMILES: CC1COCCN1c1cc(-c2ccnn2C)c2ccnc(-c3ccn[nH]3)c2n1 (stereo not given) + Cc1ccccc1N=Nc1ccc(NC(=O)c2ccnn2C)c(C)c1
viability, T/C (second compound 0.1 µM, first compound 0.00316 µM): 101%
viability, T/C (second compound 0.1 µM, first compound 0.01 µM): 107%
viability, T/C [1]: 82.2%
viability, T/C [2]: 52.3%
viability, T/C [3]: 29.6%
viability, T/C [4]: 28.2%
viability, T/C (second compound 0.316 µM, first compound 0.00316 µM): 114%
viability, T/C (second compound 0.316 µM, first compound 0.01 µM): 120%
viability, T/C [7]: 80.5%
viability, T/C [8]: 54.2%
viability, T/C [9]: 32.5%
viability, T/C [10]: 26.7%
viability, T/C (second compound 1 µM, first compound 0.00316 µM): 103%
viability, T/C (second compound 1 µM, first compound 0.01 µM): 99.5%
viability, T/C [13]: 102%
viability, T/C [14]: 47.5%
viability, T/C [15]: 29.1%
viability, T/C [16]: 28.6%
viability, T/C (second compound 3.16 µM, first compound 0.00316 µM): 101%
viability, T/C (second compound 3.16 µM, first compound 0.01 µM): 92.1%
viability, T/C [19]: 82.1%
viability, T/C [20]: 48.7%
viability, T/C [21]: 33.4%
viability, T/C [22]: 28.5%
viability, T/C (second compound 10 µM, first compound 0.00316 µM): 129%
viability, T/C (second compound 10 µM, first compound 0.01 µM): 128%
viability, T/C [25]: 108%
viability, T/C [26]: 57.1%
viability, T/C [27]: 39.7%
viability, T/C [28]: 42.4%

IC50 (second compound 0.1 µM): 2100 nM
IC50 (second compound 0.316 µM): 2360 nM
IC50 (second compound 1 µM): 2140 nM
IC50 (second compound 3.16 µM): 1550 nM
IC50 (second compound 10 µM): 2750 nM
SMILES: CC1COCCN1c1cc(C2(S(C)(=N)=O)CC2)nc(-c2ccnc3[nH]ccc23)n1 (stereo not given) + Cc1ccccc1N=Nc1ccc(NC(=O)c2ccnn2C)c(C)c1
viability, T/C [1]: 102%
viability, T/C [2]: 126%
viability, T/C [3]: 105%
viability, T/C [4]: 70.1%
viability, T/C [5]: 38.7%
viability, T/C [6]: 35.5%
viability, T/C [7]: 111%
viability, T/C [8]: 115%
viability, T/C [9]: 97.2%
viability, T/C [10]: 76.2%
viability, T/C [11]: 39.5%
viability, T/C [12]: 30.9%
viability, T/C [13]: 95.2%
viability, T/C [14]: 106%
viability, T/C [15]: 90.5%
viability, T/C [16]: 71.6%
viability, T/C [17]: 38.8%
viability, T/C [18]: 29.2%
viability, T/C [19]: 76.4%
viability, T/C [20]: 116%
viability, T/C [21]: 95.8%
viability, T/C [22]: 60.4%
viability, T/C [23]: 35.5%
viability, T/C [24]: 27.4%
viability, T/C [25]: 109%
viability, T/C [26]: 97.1%
viability, T/C [27]: 98.5%
viability, T/C [28]: 75.8%
viability, T/C [29]: 45.8%
viability, T/C [30]: 38.2%

IC50 (second compound 0.1 µM): 5910 nM
IC50 (second compound 0.316 µM): 4850 nM
IC50 (second compound 1 µM): 3610 nM
IC50 (second compound 3.16 µM): 2540 nM
IC50 (second compound 10 µM): 3680 nM
SMILES: COc1ccc([C@@H](O)c2cc(-c3ncnc4cc(N5CCOCC5)ccc34)c(F)cc2Cl)nn1 + Cc1ccccc1N=Nc1ccc(NC(=O)c2ccnn2C)c(C)c1
viability, T/C [1]: 99.7%
viability, T/C [2]: 99%
viability, T/C [3]: 82.2%
viability, T/C [4]: 66.7%
viability, T/C [5]: 62.5%
viability, T/C [6]: 42.1%
viability, T/C [7]: 99.3%
viability, T/C [8]: 90.5%
viability, T/C [9]: 80.4%
viability, T/C [10]: 82%
viability, T/C [11]: 53.8%
viability, T/C [12]: 37.2%
viability, T/C [13]: 96.1%
viability, T/C [14]: 95.7%
viability, T/C [15]: 86.1%
viability, T/C [16]: 70.8%
viability, T/C [17]: 51.9%
viability, T/C [18]: 37.8%
viability, T/C [19]: 99.9%
viability, T/C [20]: 96.6%
viability, T/C [21]: 81%
viability, T/C [22]: 64.2%
viability, T/C [23]: 47.2%
viability, T/C [24]: 34.9%
viability, T/C [25]: 97%
viability, T/C [26]: 103%
viability, T/C [27]: 82.5%
viability, T/C [28]: 78.7%
viability, T/C [29]: 50.9%
viability, T/C [30]: 32.7%

The next lines start with the compound.

SMILES: CC(C)c1c(-c2ccccc2)nc2c(C#N)c[nH]n2c1=O + Cc1ccccc1N=Nc1ccc(NC(=O)c2ccnn2C)c(C)c1
IC50 (second compound 0.1 µM): > 10000 nM
IC50 (second compound 0.316 µM): > 10000 nM
IC50 (second compound 1 µM): > 10000 nM
IC50 (second compound 3.16 µM): > 10000 nM
IC50 (second compound 10 µM): > 10000 nM
viability, T/C [1]: 114%
viability, T/C [2]: 121%
viability, T/C [3]: 123%
viability, T/C [4]: 108%
viability, T/C [5]: 88.8%
viability, T/C [6]: 86.2%
viability, T/C [7]: 112%
viability, T/C [8]: 124%
viability, T/C [9]: 121%
viability, T/C [10]: 128%
viability, T/C [11]: 104%
viability, T/C [12]: 89.7%
viability, T/C [13]: 117%
viability, T/C [14]: 109%
viability, T/C [15]: 113%
viability, T/C [16]: 103%
viability, T/C [17]: 105%
viability, T/C [18]: 109%
viability, T/C [19]: 98.2%
viability, T/C [20]: 109%
viability, T/C [21]: 124%
viability, T/C [22]: 114%
viability, T/C [23]: 90.8%
viability, T/C [24]: 122%
viability, T/C [25]: 132%
viability, T/C [26]: 141%
viability, T/C [27]: 114%
viability, T/C [28]: 119%
viability, T/C [29]: 126%
viability, T/C [30]: 119%

SMILES: O=C(C=Cn1cnc(-c2cc(C(F)(F)F)cc(C(F)(F)F)c2)n1)NNc1cnccn1 + Cc1ccccc1N=Nc1ccc(NC(=O)c2ccnn2C)c(C)c1
IC50 (second compound 0.1 µM): 238 nM
IC50 (second compound 0.316 µM): 144 nM
IC50 (second compound 1 µM): 158 nM
IC50 (second compound 3.16 µM): 149 nM
IC50 (second compound 10 µM): 132 nM
viability, T/C (second compound 0.1 µM, first compound 0.00949 µM): 101%
viability, T/C (second compound 0.1 µM, first compound 0.03 µM): 104%
viability, T/C (second compound 0.1 µM, first compound 0.0949 µM): 68.2%
viability, T/C (second compound 0.1 µM, first compound 0.3 µM): 47.9%
viability, T/C (second compound 0.1 µM, first compound 0.949 µM): 27.1%
viability, T/C (second compound 0.1 µM, first compound 3 µM): 22.9%
viability, T/C (second compound 0.316 µM, first compound 0.00949 µM): 88%
viability, T/C (second compound 0.316 µM, first compound 0.03 µM): 106%
viability, T/C (second compound 0.316 µM, first compound 0.0949 µM): 62.3%
viability, T/C (second compound 0.316 µM, first compound 0.3 µM): 32.6%
viability, T/C (second compound 0.316 µM, first compound 0.949 µM): 30.2%
viability, T/C (second compound 0.316 µM, first compound 3 µM): 22.1%
viability, T/C (second compound 1 µM, first compound 0.00949 µM): 97.4%
viability, T/C (second compound 1 µM, first compound 0.03 µM): 89%
viability, T/C (second compound 1 µM, first compound 0.0949 µM): 62.3%
viability, T/C (second compound 1 µM, first compound 0.3 µM): 34.2%
viability, T/C (second compound 1 µM, first compound 0.949 µM): 26.5%
viability, T/C (second compound 1 µM, first compound 3 µM): 23%
viability, T/C (second compound 3.16 µM, first compound 0.00949 µM): 76.9%
viability, T/C (second compound 3.16 µM, first compound 0.03 µM): 77.6%
viability, T/C (second compound 3.16 µM, first compound 0.0949 µM): 59.3%
viability, T/C (second compound 3.16 µM, first compound 0.3 µM): 34%
viability, T/C (second compound 3.16 µM, first compound 0.949 µM): 27.9%
viability, T/C (second compound 3.16 µM, first compound 3 µM): 19.7%
viability, T/C (second compound 10 µM, first compound 0.00949 µM): 86.3%
viability, T/C (second compound 10 µM, first compound 0.03 µM): 79.4%
viability, T/C (second compound 10 µM, first compound 0.0949 µM): 57.5%
viability, T/C (second compound 10 µM, first compound 0.3 µM): 31.4%
viability, T/C (second compound 10 µM, first compound 0.949 µM): 32.9%
viability, T/C (second compound 10 µM, first compound 3 µM): 25.8%
